By inhibition is commonly meant the relative decrease from the control value, in per cent. As a reminder, the EC50 is the concentration at which the effect is half-maximal. A higher EC50 goes with a need for much substance.

The record followed here is US8669254B2, “Pyridine, pyridazine, pyrimidine or pyrazine carboxamides as HDL-cholesterol raising agents” (Hoffman-La Roche Inc., priority 2010, dated 2014).

One assay deals with ABCA1 protein. Kind of assay: Detection of upregulation of ABCA1 protein in cells (ApoA-I binding, high content image analysis). Particulars: THP-1 macrophage cells; for % increase of ABCA1 at 3 μM: compound at 3 μM, 24 hrs; for EC50: ABCA1 protein detection assay. Format: cell-based. As for the experimental part: The ability of compounds of the invention to increase the level of ABCA1 protein is determined in replicate cultures of THP-1 macrophage cells in 96-well microplates. Cells are plated at an initial density of 100,000 cells/well in 100 μl medium and differentiated to adherent macrophages with the addition of PMA (100 nM) for 68 hrs in 10% fetal bovine serum, 3 μl/L of b-mercaptoethanol, RPMI-1640 medium. Then, cells are incubated with RPMI-1640 medium containing 1% FCS, 25 μg/ml acetylated LDL, for 24 hours at 37°. Following incubation with acetylated LDL, cells are washed twice with 50 μl PBS and incubated with 100 μl of RPMI-1640 medium containing the compound of interest solubilized in DMSO for an additional 24 hrs. The final DMSO concentration in presence of cells is maintained at 0.5%. ApoA-I binding assay using High Content Image Analysis is initiated by replacing with fresh medium, RPMI without Phenol Red, 0.2% BSA containing AlexaFluor®647 labeled ApoA-I for 2 h/37° C./5% CO2. Then, cells are fixed with 4% Formaldehyde in PBS (15 min, RT). Following Nuclei are stained with Hoechst solution (3 μM PBS) and Cytoplasm with Cell Mask Blue (2 μg/ml PBS), 15 min, RT. Finally the stained cells are fixed with a second round of formaldehyde treatment. Fixed stained cells are washed and kept in PBS at 4° C. and can be read immediately until one month after preparation.
The Alexa Fluor 647-labeled Apolipoprotein A-I (20 nM) was prepared as follows: Human recombinant Apolipoprotein A-I (ApoA-I) was exchanged to a buffer of 0.02 M NaHCO3 at pH 8.2 on an NAP desalting column (GE Healthcare) and brought to a concentration to 40 μM (1.13 mg/ml) by adjustment with the same buffer. The ApoA-I was fluorescently labeled by incubation with Alexa Fluor carboxylic acid succimidyl ester (Alexa Fluor 647, Invitrogen A-20006) at a 2:1 molar ratio (Alexa to ApoA-I) for 1 h under shaking at RT). The remaining unconjugated label was removed by buffer exchange to 0.02M NaHCO3 at pH 8.2.
Imaging and data collection were performed on an OPERA confocal microplate imaging reader using a 20× water immersion objective and UV360 or 405 laser to identify the cell nuclei and a 635 laser to identify the fluorescent ApoA-I. Eight fields of view are captured per well. Image capture and analysis was performed with the Acapella software. Background fluorescence detected in control wells without ApoA-I was subtracted.
Using XLfit3 program (ID Business Solutions Ltd. UK), the model 205 for Dose Response One Site is used to calculate the EC50 values. […] Particularly, the compounds of the present invention have EC50 values in a range of 0.1 μM to 3 μM.

The target of a further assay is T1, human CB1 receptor (Homo sapiens, UniProt P21554).
T1 construct: expressed in transfected cells; host or cells: human embryonic kidney (HEK) cells, Semliki Forest Virus system, membrane preparation
T1 sequence (P21554 whole entry): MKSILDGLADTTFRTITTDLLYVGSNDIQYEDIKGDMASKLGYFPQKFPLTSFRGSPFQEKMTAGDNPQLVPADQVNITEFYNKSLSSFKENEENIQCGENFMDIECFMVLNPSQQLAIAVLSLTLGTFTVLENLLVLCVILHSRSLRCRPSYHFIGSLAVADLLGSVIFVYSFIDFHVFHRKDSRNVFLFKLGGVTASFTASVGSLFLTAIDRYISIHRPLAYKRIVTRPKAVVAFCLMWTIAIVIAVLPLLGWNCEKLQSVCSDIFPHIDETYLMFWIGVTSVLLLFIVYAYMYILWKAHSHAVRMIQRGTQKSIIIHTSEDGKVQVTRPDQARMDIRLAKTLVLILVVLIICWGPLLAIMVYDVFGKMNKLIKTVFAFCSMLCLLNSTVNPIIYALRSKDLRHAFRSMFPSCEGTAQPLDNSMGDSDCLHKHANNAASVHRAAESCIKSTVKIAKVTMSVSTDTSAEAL
Kind of assay: CB1 receptor affinity ([3H]-CP-55,940 displacement). Conditions: read-out: CB1 receptor affinity [% inhibition @ 10 μM]. Type of assay: binding. On the procedure: (§1) The affinity of the compounds of the invention for cannabinoid receptors was determined using membrane preparations of human embryonic kidney (HEK) cells in which the human CB1 receptor is transiently transfected using a Semliki Forest Virus system in conjunction with [3H]-CP-55,940 as radioligand. After incubation of freshly prepared cell membrane preparation with the [^3H]-ligand, with or without addition of compounds of the invention, separation of bound and free ligand was performed by filtration over glass fiber filters. Radioactivity on the filter was measured by scintillation counting.
(§2) The ability of the compounds to displace the radioligand [^3H]-CP-55,940 was measured at a concentration of 10 μM and values provided as [% inhibition @ 10 μM] both for the CB 1 and CB2 receptor assay, The lower % inhibition is, the lower the likelihood of side effects based on CB1 or CB2 receptor inhibition is.

A further assay concerns the target T2, human CB2 receptor (Homo sapiens, UniProt P34972).
T2 construct: expressed in transfected cells; host or cells: human embryonic kidney (HEK) cells, Semliki Forest Virus system, membrane preparation
Kind of assay: CB2 receptor affinity ([3H]-CP-55,940 displacement). Format: binding. Conditions: HEK cell membranes, radioligand [3H]-CP-55,940. As for the experimental part:
as §1, with “cannabinoid CB2” for “cannabinoid”, “CB2” for “CB1”, “[^3H]-CP-55,940” for “[3H]-CP-55,940”
as §2

[1] abbreviates: 10 μM, HEK cell membranes, radioligand [3H]-CP-55,940.

Read-outs that look alike come from different tables or passages of the source.

T2 sequence (P34972 whole entry): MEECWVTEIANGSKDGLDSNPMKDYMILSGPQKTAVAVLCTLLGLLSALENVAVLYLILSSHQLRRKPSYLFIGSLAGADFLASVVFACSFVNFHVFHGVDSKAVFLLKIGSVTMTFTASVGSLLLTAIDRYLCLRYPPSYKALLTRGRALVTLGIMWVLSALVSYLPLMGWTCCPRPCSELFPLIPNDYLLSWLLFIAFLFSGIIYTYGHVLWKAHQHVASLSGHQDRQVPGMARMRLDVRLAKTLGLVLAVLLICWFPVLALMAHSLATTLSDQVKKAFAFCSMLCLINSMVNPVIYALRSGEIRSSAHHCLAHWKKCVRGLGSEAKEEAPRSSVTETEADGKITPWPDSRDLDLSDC

As for `CO/N=C(/CNC(=O)c1cnc(OCC(F)(F)F)c(-c2ccc(Cl)cc2)c1)C1CC1` [Example 14, 5-(4-Chloro-phenyl)-N-{2-cyclopropyl-2-[(E)-methoxyimino]-ethyl}-6-(2,2,2-trifluoro-ethoxy)-nicotinamide], the “% increase of ABCA1 at 3 μM” value with ABCA1 protein is on record as 157.2% @ 3 μM. Besides, the values for the inhibition at 10 µM at human CB1 receptor (setting [1]) and at human CB2 receptor were 48.2% and 20.9%, respectively.
Take `CO/N=C1\CCCC[C@@H]1NC(=O)c1cnc(OCC(F)(F)F)c(-c2ccc(Cl)cc2)c1` [Example 2, 5-(4-Chloro-phenyl)-N-{(S)-2-[(E)-methoxyimino]-cyclohexyl}-6-(2,2,2-trifluoro-ethoxy)-nicotinamide]: in the assay with ABCA1 protein, a half-maximal effect (EC50) was put at 1.82 µM and the “% increase of ABCA1 at 3 μM” value is listed as 88.3% @ 3 μM. Moreover, the inhibition at 10 µM on human CB1 receptor (setting [1]) was determined as 30.8%. In addition, at human CB2 receptor, the inhibition at 10 µM was 3.53%.
As for `O=C(NC/C(=N/OCC(F)(F)F)C1CC1)c1cnc(OCC(F)(F)F)c(-c2ccc(Cl)c(Cl)c2)c1` [Example 22, N-{2-Cyclopropyl-2-[(E/Z)-2,2,2-trifluoro-ethoxyimino]-ethyl}-5-(3,4-dichloro-phenyl)-6-(2,2,2-trifluoro-ethoxy)-nicotinamide], the “% increase of ABCA1 at 3 μM” value in the assay on ABCA1 protein worked out at 74% @ 3 μM. Besides, the inhibition at 10 µM at human CB1 receptor (setting [1]) is 36%; at human CB2 receptor it was 9%.
The corresponding values for `O=C(N[C@H]1CCCC/C1=N\OCC(F)(F)F)c1cnc(OCC2CC2)c(-c2ccc(Cl)cc2)c1` [Example 4, 5-(4-Chloro-phenyl)-6-cyclopropylmethoxy-N-{(S)-2-[(E)-2,2,2-trifluoro-ethoxyimino]-cyclohexyl}-nicotinamide] are 90.4% @ 3 μM, 48.5% and 8.91%.
Consider `CO/N=C(/CNC(=O)c1cc(-c2ccc(Cl)cc2)c(O[C@@H](C)C(F)(F)F)nn1)C1CC1` [Example 25, (S,E)-5-(4-Chlorophenyl)-N-(2-cyclopropyl-2-(methoxyimino)ethyl)-6-(1,1,1-trifluoropropan-2-yloxy)pyridazine-3-carboxamide], for which, in the assay on ABCA1 protein, the “% increase of ABCA1 at 3 μM” value was found to be 61% @ 3 μM. Further, the results for the inhibition at 10 µM on human CB1 receptor (setting [1]) and on human CB2 receptor were 39% and 29%, respectively.
For `CO/N=C(/CNC(=O)c1cnc(OCC(F)(F)F)c(-c2ccc(Cl)c(Cl)c2)c1)C1CC1` [Example 12, N-{2-Cyclopropyl-2-[(E)-methoxyimino]-ethyl}-5-(3,4-dichloro-phenyl)-6-(2,2,2-trifluoro-ethoxy)-nicotinamide] the same measures were 88.4% @ 3 μM, 26.8% and 47.7%.
In the case of `CO/N=C1\CCCC[C@H]1NC(=O)c1cnc(OCC(F)(F)F)c(-c2ccc(Cl)c(Cl)c2)c1` [Example 8, 5-(3,4-Dichloro-phenyl)-N-{(R)-2-[(E)-methoxyimino]-cyclohexyl}-6-(2,2,2-trifluoro-ethoxy)-nicotinamide], in the assay on ABCA1 protein, the EC50 worked out at 0.81 µM and the “% increase of ABCA1 at 3 μM” value came to 63% @ 3 μM. In addition, the inhibition at 10 µM on human CB1 receptor stood at 35.2%. For the same compound, at 10 µM the inhibition at human CB2 receptor was 13.1%.
`CO/N=C1\CCCC[C@@H]1NC(=O)c1cc(-c2ccc(Cl)cc2)c(OCC(F)(F)F)nn1` [Example 17, 5-(4-Chloro-phenyl)-6-(2,2,2-trifluoro-ethoxy)-pyridazine-3-carboxylic acid {(S)-2-[(E)-methoxyimino]-cyclohexyl}-amide]: in the assay with ABCA1 protein, the EC50 is 2.63 µM and the “% increase of ABCA1 at 3 μM” value is reported as 76.5% @ 3 μM. In addition, the inhibition at 10 µM on human CB1 receptor (setting [1]) is 16.6%. For the same compound, the inhibition at 10 µM at human CB2 receptor amounted to 13.6%.
For the compound `COCO/N=C1\CCCC[C@@H]1NC(=O)c1cnc(OCC2CC2)c(-c2ccc(Cl)cc2)c1` [Example 6, 5-(4-Chloro-phenyl)-6-cyclopropylmethoxy-N-{(S)-2-[(E)-methoxymethoxyimino]-cyclohexyl}-nicotinamide], the “% increase of ABCA1 at 3 μM” value in the assay with ABCA1 protein amounted to 71.9% @ 3 μM. Moreover, the inhibition at 10 µM at human CB1 receptor (setting [1]) worked out at 36.7%; at human CB2 receptor it was 19.2%.
On to `CO/N=C1\CCCC[C@H]1NC(=O)c1cc(-c2ccc(Cl)cc2)c(OCC(F)(F)F)nn1` [Example 16, 5-(4-Chloro-phenyl)-6-(2,2,2-trifluoro-ethoxy)-pyridazine-3-carboxylic acid {(R)-2-[(E)-methoxyimino]-cyclohexyl}-amide], for which, in the assay with ABCA1 protein, the EC50 stood at 10 µM and the “% increase of ABCA1 at 3 μM” value is given as 55.3% @ 3 μM. Further, the inhibition at 10 µM on human CB1 receptor (setting [1]) came out at 25.4%. This compound also came in with an inhibition at 10 µM at human CB2 receptor of 16.6%.
As for `CO/N=C1\CCCC[C@@H]1NC(=O)c1cc(-c2ccc(Cl)cc2)c(OCC(F)(F)F)cn1` [Example 9, 4-(4-Chloro-phenyl)-5-(2,2,2-trifluoro-ethoxy)-pyridine-2-carboxylic acid {(S)-2-[(E)-methoxyimino]-cyclohexyl}-amide], the “% increase of ABCA1 at 3 μM” value in the assay on ABCA1 protein amounted to 71.7% @ 3 μM. Moreover, the inhibition at 10 µM was determined as 15.9% on human CB1 receptor (setting [1]) and 37.6% on human CB2 receptor.
With `CC(C)O/N=C1\CCCC[C@@H]1NC(=O)c1cnc(OCC2CC2)c(-c2ccc(Cl)cc2)c1` [Example 3, 5-(4-Chloro-phenyl)-6-cyclopropylmethoxy-N-{(S)-2-[(E)-isopropoxyimino]-cyclohexyl}-nicotinamide], the “% increase of ABCA1 at 3 μM” value with ABCA1 protein was determined as 66.4% @ 3 μM. For the same compound, the inhibition at 10 µM on human CB1 receptor (setting [1]) was found to be 45.7%; on human CB2 receptor, 6.86%.
As to `CO/N=C(/CNC(=O)c1ncc(OCC2CC2)c(-c2ccc(Cl)cc2)n1)C1CC1` [Example 20, 4-(4-chloro-phenyl)-5-cyclopropylmethoxy-pyrimidine-2-carboxylic acid {2-cyclopropyl-2-[(E)-methoxyimino]-ethyl}-amide], the “% increase of ABCA1 at 3 μM” value in the assay with ABCA1 protein is recorded as 87.03% @ 3 μM. Further, the inhibition at 10 µM on human CB1 receptor (setting [1]) is 28.8%; on human CB2 receptor, 71.7%.
The corresponding values for `CO/N=C(\CNC(=O)c1ncc(OCC2CC2)c(-c2ccc(Cl)cc2)n1)C1CC1` [Example 19, 4-(4-Chloro-phenyl)-5-cyclopropylmethoxy-pyrimidine-2-carboxylic acid {2-cyclopropyl-2-[(Z)-methoxyimino]-ethyl}-amide] are 84.2% @ 3 μM, 28% and 63.8%.
Consider `CO/N=C1\CCCC[C@@H]1NC(=O)c1cnc(OCC(F)(F)F)c(-c2ccc(Cl)c(Cl)c2)c1` [Example 7, 5-(3,4-Dichloro-phenyl)-N-{(S)-2-[(E)-methoxyimino]-cyclohexyl}-6-(2,2,2-trifluoro-ethoxy)-nicotinamide], for which the response in the assay with ABCA1 protein was half-maximal at 4.72 µM (EC50). In addition, in the assay on ABCA1 protein, the “% increase of ABCA1 at 3 μM” value is 84.6% @ 3 μM. The inhibition at 10 µM on human CB1 receptor was 10.5%; at human CB2 receptor, 3.56%.
As for `CO/N=C1\CCCC[C@@H]1NC(=O)c1cc(-c2ccc(Cl)cc2)c(OCC2CC2)nn1` [Example 18, 5-(4-Chloro-phenyl)-6-cyclopropylmethoxy-pyridazine-3-carboxylic acid {(S)-2-[(E)-methoxyimino]-cyclohexyl}-amide], in the assay on ABCA1 protein, the midpoint of the response, the EC50, lay at 4.99 µM and the “% increase of ABCA1 at 3 μM” value came out at 57.3% @ 3 μM. The inhibition at 10 µM at human CB1 receptor (setting [1]) is 26.9%. The inhibition at 10 µM at human CB2 receptor stood at 32.5%.
